Source: the supplement of paper PMC13380429

Assays:
Conditions in all cases: 72 h
HepG2 [1] = assay: cell viability relative to DMSO; higher = less toxic
Vero E6 [2] = assay: as above
Caco-2 [3] = assay: as above
HepG2 [4] = assay: drug sensitivity score (DSS) for viability; higher = more toxic; extreme values may be limits of the assay
Vero E6 [5] = assay: as above
Caco-2 [6] = assay: as above
Vero E6 [7] = assay: relative viability EC50 (midpoint between 100% and the lowest measured viability); higher = less toxic
Caco-2 [8] = assay: as above
Calu-3 [9] = assay: cell viability relative to DMSO; higher = less toxic
U2OS [10] = assay: as above
Calu-3 [11] = assay: drug sensitivity score (DSS) for viability; higher = more toxic; extreme values may be limits of the assay
U2OS [12] = assay: as above
HepG2 [13] = assay: relative viability EC50 (midpoint between 100% and the lowest measured viability); higher = less toxic
U2OS [14] = assay: as above
Calu-3 [15] = assay: as above

SMILES | cell viability (HepG2 [1]; 1 nM) | cell viability (HepG2 [1]; 10 nM) | cell viability (HepG2 [1]; 100 nM) | cell viability (HepG2 [1]; 1000 nM) | cell viability (HepG2 [1]; 10000 nM) | cell viability (Vero E6 [2]; 1 nM) | cell viability (Vero E6 [2]; 10 nM) | cell viability (Vero E6 [2]; 100 nM) | cell viability (Vero E6 [2]; 1000 nM) | cell viability (Vero E6 [2]; 10000 nM) | cell viability (Caco-2 [3]; 1 nM) | cell viability (Caco-2 [3]; 10 nM) | cell viability (Caco-2 [3]; 100 nM) | cell viability (Caco-2 [3]; 1000 nM) | cell viability (Caco-2 [3]; 10000 nM) | drug sensitivity score (HepG2 [4]) | drug sensitivity score (Vero E6 [5]) | drug sensitivity score (Caco-2 [6]) | relative viability EC50 (Vero E6 [7]) | relative viability EC50 (Caco-2 [8]) | cell viability (Calu-3 [9]; 1 nM) | cell viability (Calu-3 [9]; 10 nM) | cell viability (Calu-3 [9]; 100 nM) | cell viability (Calu-3 [9]; 1000 nM) | cell viability (Calu-3 [9]; 10000 nM) | cell viability (U2OS [10]; 1 nM) | cell viability (U2OS [10]; 10 nM) | cell viability (U2OS [10]; 100 nM) | cell viability (U2OS [10]; 1000 nM) | cell viability (U2OS [10]; 10000 nM) | drug sensitivity score (Calu-3 [11]) | drug sensitivity score (U2OS [12]) | relative viability EC50 (HepG2 [13]) | relative viability EC50 (U2OS [14]) | relative viability EC50 (Calu-3 [15])
COc1cc2ncnc(Oc3cccc(NC(=O)Nc4cc(C(C)(C)C(F)(F)F)on4)c3)c2cc1OC | 114% | 93.9% | 110% | 93.7% | 59.8% | 100% | 97.1% | 108% | 108% | 88.3% | 102% | 94.1% | 97.5% | 93.2% | 93.8% | 3 | 0 | 0 | > 10000 nM | > 10000 nM | – | – | – | – | – | – | – | – | – | – | – | – | – | – | –
COc1ccc(C(=O)N2CCCc3cc(C4=NNC(=O)SC4C)ccc32)cc1OC (stereo unspecified) | 83.4% | 80.2% | 95.9% | 90.1% | 81.2% | 103% | 100% | 102% | 83.7% | 67.7% | 95.4% | 94.2% | 89.8% | 83.7% | 71.5% | 0 | 3.5 | 3.2 | – | – | 97.5% | 93.4% | 101% | 87.7% | 70.1% | 96.2% | 104% | 103% | 96.8% | 90.2% | 2.9 | 0 | > 10000 nM | > 10000 nM | –
COc1cccc(Nc2c(C(N)=O)cnc3c(C)cc(S(=O)(=O)c4cccc(C(=O)N(C)C)c4)cc23)c1 | – | – | – | – | – | – | – | – | – | – | – | – | – | – | – | 0 | 0 | – | – | – | – | – | – | – | – | – | – | – | – | – | – | 0 | – | – | –
N#Cc1cc2c(OCC(O)CN3CCN(C(c4ccccc4)c4ccccc4)CC3)cccc2[nH]1 (stereo unspecified) | 83.5% | 96.1% | 96.8% | 101% | 38.9% | 101% | 103% | 95.5% | 98.9% | 53.5% | 106% | 92.7% | 112% | 92.9% | 68.3% | 3.2 | 2.5 | 2.5 | – | – | 105% | 93.4% | 95.2% | 97.8% | 95.7% | 96.3% | 101% | 102% | 100% | 92.5% | 0 | 0 | 3300 nM | > 10000 nM | > 10000 nM
O=C(NC[C@H](O)CO)c1ccncc1Nc1ccc(I)cc1F | 102% | 62.9% | 35% | 20.5% | 15.8% | 98.2% | 85.4% | 67.4% | 52% | 52.7% | 92.8% | 93.2% | 81.7% | 73% | 61.7% | 27.2 | 13.5 | 6.9 | – | – | 96.8% | 83.1% | 67.3% | 51% | 31.9% | 94.6% | 94.5% | 91.6% | 91.8% | 29.9% | 14.8 | 5.2 | 17.8 nM | 2200 nM | 104 nM
Cc1cc(Nc2nc(N[C@@H](C)c3ccc(F)cc3)c(C#N)cc2F)n[nH]1 [AZ960] | 111% | 105% | 96.7% | 43.2% | 33.6% | 99.3% | 99.6% | 100% | 65.9% | 40.9% | 112% | 109% | 118% | 77.8% | 51.8% | 10.9 | 7.4 | 5.4 | 883 nM | – | 118% | 103% | 96.1% | 83.9% | 38.9% | 104% | 101% | 104% | 76.3% | 27.8% | 5.8 | 7.4 | 422 nM | 1330 nM | 1510 nM
COc1cc(OC2CCN(C)CC2)ccc1Nc1ncc2c(n1)n(C1CCCC1)c(=O)n2C [AZ3146] | 106% | 97.9% | 102% | 96.1% | 28.8% | 111% | 104% | 103% | 99.4% | 41.8% | 103% | 101% | 104% | 95% | 76.8% | 4.5 | 3.2 | 1.5 | 3100 nM | > 10000 nM | 95.5% | 87.4% | 93.6% | 84.4% | 62.4% | 100% | 104% | 101% | 92.2% | 57% | 3.8 | 3.5 | 2740 nM | – | –
O=C1c2ccccc2-c2c(NCCc3ccccc3)c(=O)[nH]c3cccc1c23 [BRD7389] | 98.8% | 101% | 99% | 45.7% | 34.8% | 102% | 102% | 101% | 69.1% | 33.5% | 103% | 102% | 97.3% | 71.6% | 61.9% | 10.1 | 7.7 | 5.3 | 1060 nM | – | 97.4% | 100% | 97.6% | 83.1% | 72.5% | 97.2% | 102% | 95.5% | 68.5% | 44.5% | 2.8 | 6.7 | 525 nM | 795 nM | –
